Data from ChEMBL document CHEMBL1157764, “Conserved high activity binding peptides are involved in adhesion of two detergent-resistant membrane-associated merozoite proteins to red blood cells during invasion” (J Med Chem, 2010).

Species: Homo sapiens
Assay: Binding affinity to RBC membrane receptor in human RBCs assessed as specific binding activity measured as ratio of specifically bound peptide/added peptide by gamma counter

Activity, > 2%:
CC(C)[C@H](NC(=O)[C@H](CC(=O)O)NC(=O)[C@H](CC(=O)O)NC(=O)[C@H](CC(=O)O)NC(=O)[C@H](CO)NC(=O)[C@H](CCC(=O)O)NC(=O)[C@H](CC(N)=O)NC(=O)[C@H](CC(=O)O)NC(=O)[C@H](CCC(N)=O)NC(=O)[C@H](CC(N)=O)NC(=O)[C@H](CCCCN)NC(=O)[C@H](CC(N)=O)NC(=O)[C@H](CCC(=O)O)NC(=O)[C@@H](N)CC(=O)O)C(=O)N[C@@H](CC(N)=O)C(=O)N[C@@H](CC(N)=O)C(=O)N[C@@H](CC(N)=O)C(=O)N[C@@H](CC(N)=O)C(=O)N[C@@H](CC(N)=O)C(=O)N[C@@H](CC(N)=O)C(=O)N[C@@H](Cc1ccc(O)cc1)C(=O)N[C@@H](CC(N)=O)C(=O)N[C@@H](CC(N)=O)C(=O)N[C@@H](CC(=O)O)C(=O)N[C@@H](CC(=O)O)C(=O)O, CC(C)[C@H](NC(=O)[C@H](Cc1cnc[nH]1)NC(=O)[C@@H](NC(=O)[C@H](CCCCN)NC(=O)[C@H](CCC(=O)O)NC(=O)[C@@H](NC(=O)[C@H](CC(N)=O)NC(=O)[C@H](CC(N)=O)NC(=O)[C@H](CCCNC(=N)N)NC(=O)[C@H](Cc1ccccc1)NC(=O)[C@H](C)NC(=O)[C@H](Cc1cnc[nH]1)NC(=O)[C@@H](NC(=O)[C@@H](NC(=O)[C@H](CO)NC(=O)[C@H](CCC(=O)O)NC(=O)[C@H](CC(N)=O)NC(=O)[C@@H](N)CO)C(C)C)[C@@H](C)O)[C@@H](C)O)[C@@H](C)O)C(=O)N[C@@H](Cc1cnc[nH]1)C(=O)N[C@@H](CCCCN)C(=O)N[C@@H](Cc1ccc(O)cc1)C(=O)O, CC[C@H](C)[C@H](NC(=O)[C@@H](NC(=O)[C@H](CC(=O)O)NC(=O)[C@H](CC(N)=O)NC(=O)[C@H](Cc1cnc[nH]1)NC(=O)[C@@H](NC(=O)[C@H](Cc1ccc(O)cc1)NC(=O)[C@H](CS)NC(=O)[C@@H](N)CCCNC(=N)N)C(C)C)C(C)C)C(=O)N[C@@H](CCCCN)C(=O)N[C@@H](Cc1ccccc1)C(=O)NCC(=O)N[C@@H](CCC(=O)O)C(=O)N[C@@H](CCC(=O)O)C(=O)N[C@@H](CC(N)=O)C(=O)N[C@@H](CO)C(=O)N[C@@H](CC(C)C)C(=O)N[C@@H](CCCCN)C(=O)N[C@@H](CS)C(=O)N[C@@H](CO)C(=O)O, CC[C@H](C)[C@H](NC(=O)[C@@H](NC(=O)[C@H](Cc1ccc(O)cc1)NC(=O)[C@H](CCC(=O)O)NC(=O)[C@H](CCCCN)NC(=O)[C@H](CCC(=O)O)NC(=O)[C@H](Cc1ccc(O)cc1)NC(=O)[C@H](CO)NC(=O)[C@H](Cc1ccccc1)NC(=O)[C@H](Cc1ccc(O)cc1)NC(=O)[C@H](CO)NC(=O)[C@@H](NC(=O)[C@H](CCSC)NC(=O)[C@H](Cc1ccc(O)cc1)NC(=O)[C@@H](NC(=O)CNC(=O)[C@H](CCCCN)NC(=O)[C@@H]1CCCN1C(=O)[C@@H](N)Cc1ccccc1)[C@@H](C)O)[C@@H](C)O)C(C)C)C(=O)N[C@@H](CO)C(=O)O, CC[C@H](C)[C@H](NC(=O)[C@@H]1CCCN1C(=O)[C@H](Cc1ccccc1)NC(=O)[C@H](Cc1cnc[nH]1)NC(=O)[C@H](Cc1ccccc1)NC(=O)[C@H](CCC(N)=O)NC(=O)[C@@H](NC(=O)[C@H](CCC(=O)O)NC(=O)[C@@H](NC(=O)[C@H](Cc1ccc(O)cc1)NC(=O)[C@H](CC(=O)O)NC(=O)[C@H](CCC(=O)O)NC(=O)[C@@H](N)CC(C)C)C(C)C)C(C)C)C(=O)N[C@@H](Cc1ccc(O)cc1)C(=O)N[C@@H](Cc1ccc(O)cc1)C(=O)N[C@H](C(=O)N[C@@H](CCCCN)C(=O)N[C@@H](Cc1ccccc1)C(=O)N[C@@H](CC(C)C)C(=O)N[C@@H](Cc1ccc(O)cc1)C(=O)O)[C@H](C)O, CC[C@H](C)[C@H](NC(=O)[C@H](C)NC(=O)[C@@H](NC(=O)[C@H](Cc1ccccc1)NC(=O)[C@@H](NC(=O)[C@@H](NC(=O)[C@H](CC(N)=O)NC(=O)[C@@H](C)N)[C@@H](C)CC)[C@@H](C)CC)[C@@H](C)CC)C(=O)N[C@H](C(=O)N[C@@H](CO)C(=O)N[C@H](C(=O)N[C@H](C(=O)N[C@@H](CO)C(=O)N[C@@H](CC(C)C)C(=O)N[C@@H](CO)C(=O)N[C@H](C(=O)N[C@@H](CO)C(=O)N[C@@H](CO)C(=O)N[C@@H](Cc1ccccc1)C(=O)N[C@H](C(=O)N[C@@H](Cc1ccc(O)cc1)C(=O)O)[C@@H](C)CC)[C@@H](C)CC)[C@@H](C)CC)[C@@H](C)CC)[C@@H](C)CC, CC[C@H](C)[C@H](NC(=O)[C@H](CC(=O)O)NC(=O)[C@H](CCCCN)NC(=O)[C@H](CCC(=O)O)NC(=O)[C@H](CC(=O)O)NC(=O)[C@H](CCC(N)=O)NC(=O)[C@@H]1CCCN1C(=O)[C@H](NC(=O)[C@@H](NC(=O)[C@H](CCCCN)NC(=O)[C@H](CC(N)=O)NC(=O)[C@H](NC(=O)[C@H](CCSC)NC(=O)[C@@H](NC(=O)[C@@H](NC(=O)[C@H](CCC(=O)O)NC(=O)[C@H](CCC(N)=O)NC(=O)[C@@H](N)CC(=O)O)[C@@H](C)CC)[C@@H](C)O)[C@@H](C)CC)[C@H](C)O)[C@@H](C)CC)C(=O)N[C@@H](CC(C)C)C(=O)N[C@@H](Cc1ccccc1)C(=O)N[C@@H](Cc1ccc(O)cc1)C(=O)O, CC[C@H](C)[C@H](NC(=O)[C@H](CC(=O)O)NC(=O)[C@H](CCCCN)NC(=O)[C@H](CCCNC(=N)N)NC(=O)[C@H](Cc1ccccc1)NC(=O)[C@H](CCCNC(=N)N)NC(=O)[C@@H](NC(=O)[C@@H](NC(=O)[C@@H]1CCCN1C(=O)[C@H](CC(C)C)NC(=O)CN)[C@H](C)O)[C@@H](C)CC)C(=O)N[C@@H](CO)C(=O)N[C@H](C(=O)N[C@@H](CCC(=O)O)C(=O)N[C@@H](CC(N)=O)C(=O)N[C@@H](CC(C)C)C(=O)N[C@H](C(=O)N[C@@H](Cc1ccc(O)cc1)C(=O)N[C@@H](CC(C)C)C(=O)N[C@@H](CC(N)=O)C(=O)O)[C@@H](C)O)C(C)C, CC[C@H](C)[C@H](NC(=O)[C@H](CC(C)C)NC(=O)[C@H](CS)NC(=O)[C@@H](NC(=O)[C@H](CC(C)C)NC(=O)[C@H](Cc1ccccc1)NC(=O)[C@H](CCC(N)=O)NC(=O)[C@H](CC(C)C)NC(=O)[C@H](CC(C)C)NC(=O)[C@H](CC(C)C)NC(=O)[C@@H](NC(=O)[C@H](Cc1cnc[nH]1)NC(=O)[C@H](CC(C)C)NC(=O)[C@@H](NC(=O)[C@H](Cc1ccccc1)NC(=O)[C@H](Cc1ccccc1)NC(=O)[C@@H]1CCCN1C(=O)[C@@H](NC(=O)[C@H](CCCCN)NC(=O)[C@@H](N)CCSC)[C@@H](C)CC)[C@@H](C)CC)[C@@H](C)CC)[C@@H](C)CC)C(=O)N[C@@H](Cc1ccc(O)cc1)C(=O)O, CC[C@H](C)[C@H](NC(=O)[C@H](CC(N)=O)NC(=O)[C@@H](NC(=O)[C@H](CC(N)=O)NC(=O)CNC(=O)[C@H](CC(=O)O)NC(=O)[C@H](CCCCN)NC(=O)[C@@H](NC(=O)[C@@H](NC(=O)[C@@H](NC(=O)[C@@H]1CCCN1C(=O)[C@H](CCC(=O)O)NC(=O)[C@H](CCC(=O)O)NC(=O)[C@H](CC(N)=O)NC(=O)[C@@H](N)CCCCN)C(C)C)[C@@H](C)CC)C(C)C)[C@@H](C)CC)C(=O)N[C@@H](CCCCN)C(=O)N[C@@H](CO)C(=O)N[C@@H](C)C(=O)N[C@@H](CC(C)C)C(=O)N[C@@H](CC(C)C)C(=O)N[C@@H](Cc1ccc(O)cc1)C(=O)O, CC[C@H](C)[C@H](NC(=O)[C@H](CCCCN)NC(=O)[C@@H](NC(=O)[C@H](Cc1ccc(O)cc1)NC(=O)CNC(=O)[C@H](CCC(=O)O)NC(=O)[C@H](CC(=O)O)NC(=O)[C@H](CO)NC(=O)[C@H](Cc1ccc(O)cc1)NC(=O)[C@H](CC(C)C)NC(=O)[C@H](CC(N)=O)NC(=O)[C@H](CCSC)NC(=O)[C@@H](NC(=O)[C@H](CCC(C)=O)NC(=O)[C@H](CC(N)=O)NC(=O)[C@H](CCCCN)NC(=O)[C@@H](N)Cc1c[nH]c2ccccc12)C(C)C)[C@@H](C)O)C(=O)N[C@@H](CC(N)=O)C(=O)N[C@H](C(=O)N[C@@H](CC(C)C)C(=O)O)[C@@H](C)O, CC[C@H](C)[C@H](NC(=O)[C@H](CCCCN)NC(=O)[C@H](CCCNC(=N)N)NC(=O)[C@@H]1CCCN1C(=O)[C@@H](NC(=O)[C@@H](NC(=O)[C@H](CCCCN)NC(=O)[C@@H](NC(=O)[C@H](CCCCN)NC(=O)[C@@H](NC(=O)[C@@H](NC(=O)[C@@H](N)Cc1ccc(O)cc1)C(C)C)[C@@H](C)CC)[C@@H](C)CC)[C@@H](C)O)C(C)C)C(=O)N[C@@H](CCC(N)=O)C(=O)N[C@@H](CS)C(=O)N[C@@H](CCC(=O)O)C(=O)N[C@@H](CC(C)C)C(=O)N[C@@H](CC(N)=O)C(=O)N[C@H](C(=O)N[C@@H](CC(N)=O)C(=O)N[C@@H](CC(=O)O)C(=O)O)[C@@H](C)O, CC[C@H](C)[C@H](NC(=O)[C@H](CO)NC(=O)[C@H](CCCNC(=N)N)NC(=O)[C@@H](NC(=O)[C@@H](NC(=O)[C@@H](N)CCC(N)=O)[C@@H](C)O)[C@@H](C)CC)C(=O)N[C@@H](C(=O)N[C@@H](CC(C)C)C(=O)N[C@@H](CC(C)C)C(=O)N[C@@H](CS)C(=O)N[C@@H](CO)C(=O)N[C@@H](CC(N)=O)C(=O)N[C@@H](CC(C)C)C(=O)N[C@@H](Cc1cnc[nH]1)C(=O)N[C@@H](CC(=O)O)C(=O)N[C@@H](Cc1c[nH]c2ccccc12)C(=O)N[C@@H](CCCCN)C(=O)N[C@@H](CC(C)C)C(=O)N[C@@H](Cc1ccccc1)C(=O)N[C@@H](CS)C(=O)N[C@@H](Cc1ccc(O)cc1)C(=O)O)[C@@H](C)CC, CC[C@H](C)[C@H](NC(=O)[C@H](Cc1ccc(O)cc1)NC(=O)[C@@H](N)CC(N)=O)C(=O)N[C@@H](CCC(=O)O)C(=O)N[C@@H](CCC(=O)O)C(=O)N1CCC[C@H]1C(=O)N[C@@H](Cc1ccccc1)C(=O)N[C@@H](CO)C(=O)N[C@H](C(=O)N[C@H](C(=O)N[C@@H](Cc1ccccc1)C(=O)N[C@H](C(=O)N[C@H](C(=O)N[C@@H](CC(C)C)C(=O)N[C@@H](CCC(N)=O)C(=O)N[C@H](C(=O)N[C@@H](CCC(N)=O)C(=O)N[C@@H](CCSC)C(=O)N[C@@H](CC(N)=O)C(=O)O)[C@@H](C)O)[C@@H](C)CC)[C@@H](C)O)[C@@H](C)O)[C@@H](C)O, CC[C@H](NC(=O)[C@H](CC(C)C)NC(=O)[C@H](CCCCN)NC(=O)[C@H](CC(N)=O)NC(=O)[C@H](CC(N)=O)NC(=O)[C@H](Cc1ccc(O)cc1)NC(=O)[C@@H](NC(=O)[C@H](Cc1ccc(O)cc1)NC(=O)[C@H](CCCCN)NC(=O)[C@H](Cc1ccc(O)cc1)NC(=O)[C@@H](NC(=O)[C@H](Cc1ccc(O)cc1)NC(=O)[C@@H](NC(=O)[C@H](Cc1ccc(O)cc1)NC(=O)[C@@H](NC(=O)[C@H](CCCCN)NC(=O)[C@H](CC(N)=O)NC(=O)[C@@H](NC(=O)[C@@H](N)[C@@H](C)O)C(C)C)[C@@H](C)CC)[C@@H](C)O)[C@@H](C)O)[C@@H](C)CC)C(=O)N[C@@H](C)C(=O)O
